# Laboratory results from ChEMBL document CHEMBL1147874, “Structure-activity based study of the Smac-binding pocket within the BIR3 domain of XIAP” (Bioorg Med Chem, 2007).
# Activity calls are given as the source filed them. The calls are words filed in the database; no cut-off is given here.
# Assays:
# [1] = molecular target: E3 ubiquitin-protein ligase XIAP (Homo sapiens, UniProt P98170); assay: Binding affinity to BIR3 domain of XIAP by competitive fluorescent binding assay
# [2] = species: Homo sapiens; assay: Cytotoxicity against […] cells assessed as reduction in cell viability at 30 to 500 uM after 72 hrs by MTT assay; type: functional, cell-based
# Chain of E3 ubiquitin-protein ligase XIAP (P98170 whole entry, the tested form may be a part): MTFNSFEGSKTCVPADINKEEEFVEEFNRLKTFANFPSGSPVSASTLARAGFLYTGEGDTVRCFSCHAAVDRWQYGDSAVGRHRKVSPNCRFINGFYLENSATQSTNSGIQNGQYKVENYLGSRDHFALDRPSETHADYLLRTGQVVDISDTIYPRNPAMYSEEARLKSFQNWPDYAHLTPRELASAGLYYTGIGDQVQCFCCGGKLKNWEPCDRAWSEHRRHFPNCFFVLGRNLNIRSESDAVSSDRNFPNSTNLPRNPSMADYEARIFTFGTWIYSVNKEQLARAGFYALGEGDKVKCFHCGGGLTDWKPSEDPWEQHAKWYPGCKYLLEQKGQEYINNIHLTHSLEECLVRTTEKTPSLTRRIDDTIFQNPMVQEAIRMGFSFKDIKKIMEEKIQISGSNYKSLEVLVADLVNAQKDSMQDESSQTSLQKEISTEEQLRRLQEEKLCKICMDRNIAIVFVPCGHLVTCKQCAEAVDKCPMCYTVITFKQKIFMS
SMILES,Kd [1] [µM],Activity [2]
CC[C@H](C)[C@H](NC(=O)[C@@H]1CCCN1C(=O)c1coc([C@H](C)N)n1)C(=O)O,300,–
CC[C@H](C)[C@H](NC(=O)[C@@H]1CCCN1C(=O)[C@@H](NC(=O)[C@H](C)N)C(C)C)C(=O)O,–,inactive
C[C@H](N)c1nc(C(=O)N2CCC[C@H]2C(=O)N[C@@H](Cc2ccccc2)C(=O)O)co1,11,–
C[C@H](N)c1nc(C(=O)N2CCC[C@H]2C(=O)N[C@@H](Cc2c[nH]c3ccccc23)C(=O)O)co1,–,Active
